Reference: patent US7998936B2, “Use of timosaponin Bll in the preparation of a medicament or product for the prevention and treatment of stroke” (Institute of Radiation Medicine, Academy of Military …, priority 2004, dated 2011)

Key:
[1] = system: FeCl3-Induced Middle Cerebral Artery Thrombosis (MCAT) Rats; test: Cerebral infarct size (TTC staining) in FeCl3-induced middle cerebral artery thrombosis rats; format: in vivo, rat; settings: for cerebral infarct size percentage to affected side / cerebral infarct size percentage to total brain: x ± s; for effect on cerebral infarct size (in words): 20 mg/kg and 40 mg/kg, 7 days
Description: (§1) Tamura and Liu's methods were used with modifications to prepare the model. Rats were anesthetized by intraperitoneal injection of 10% chloral hydrate (0.35 g/kg); and fixed with right arm reclining. An arc incision of about 1.5 cm in length was made at the midpoint between the link of paropia and external auditory canal and temporalis was removed to expose the temporal bone. […] The surrounding-tissues were protected with a piece of plastic film. A small piece of quantitative filter paper, which had absorbed 10 μL of a 50% ferric chloride solution, was applied on this segment of middle cerebral artery. The filter paper was removed after 30 min, and local tissues were rinsed with normal saline solution, followed by suture layer by layer. Then the experimental rats were put back to rearing cage. The temperature was controlled at 24° C. For the sham-operation group, the operation procedures were the same as the model group except for the application of the ferric chloride solution.
After behavior assessment, the animals were decapitated to remove the brains. The olfactory bulb, cerebellum and lower brain stem were removed, and the remaining part was cut into 5 coronal sections below 4° C. The sections were immediately placed into a TTC staining solution (containing 1.5 m 4% TTC, 0.1 ml 1M K2HPO4 and water (balance) per 5 ml staining solution), followed by incubation in dark at 37° C. for 30 min. Then, the sections were transferred into a solution of 10% formaldehyde and incubated in dark for 24 h. After staining, the non-ischemic areas were rose red, and the infracted areas were white. The white tissues were carefully collected and weighed. The extent of cerebral infarction was expressed as a percentage (%) of infracted tissue to the weight of total brain and also to the affected side of brain.

[2] = system: FeCl3-Induced Middle Cerebral Artery Thrombosis (MCAT) Rats; test: Neurological symptom score in middle cerebral artery thrombosis rats; format: in vivo, rat; settings: for effect on neurological symptoms (in words): 20 mg/kg and 40 mg/kg, 7 days; for neurological symptomatic score 6 h: 6 h after operation; for neurological symptomatic score 6 h / neurological symptomatic score 24 h: full score 4; for neurological symptomatic score 24 h: 24 h after operation
Description: as §1
The experimental animals were tested for behaviors 6 h and 24 h after operation according to the Sederson's method with modifications. Criteria: (1) The tail of the rat was lifted to observe the flexibility of the forelimb, with both forelimbs symmetrically stretching forward scored as 0, and occurrence of any or all of shoulder inflexion, elbow inflexion, shoulder intorsion in the contralateral fore-limb opposite to the operation side scored as 1. (2) The animal was placed on a plane, and its shoulders were pushed to the opposite direction to check resistance, Equivalency and strong resistance in both sides was scored as 0, and reduction in resistance in the contralateral side was scored as 1. (3) Both forelimbs of the rat were placed on wire gauze to observe the muscular tension. […] According to the criteria above, the full score is 4, and the higher the score is, the more serious the behavior disorder of the animal is.

[3] = system: Middle Cerebral Artery Thrombosis (MCAT) Rats; test: Water content in brain tissues in middle cerebral artery thrombosis rats; format: in vivo, rat; settings: for Water content of affected hemisphere / Water content of unaffected hemisphere: 24 h after operation
[4] = system: acute blood stagnation model rats; test: Whole blood and plasma viscosities in acute blood stagnation model rats; format: in vivo, rat; settings: for effect on whole blood and plasma viscosities (in words): 10 mg/kg, 20 mg/kg and 40 mg/kg, high, middle and low shear rates
Description: MAO Teng-min's methods were modified to prepare the model.

[5] = system: acute blood stagnation model rats; test: Erythrocyte aggregation and deformability in acute blood stagnation model rats; format: in vivo, rat; settings: for effect on erythrocyte aggregation index (in words) / effect on erythrocyte deformability (in words): vs. model group; for Erythrocyte aggregation SS / Erythrocyte deformability SSS: area under curve; for Erythrocyte aggregation MAXD: maximal erythrocyte aggregation index; for Erythrocyte deformability MAXDI: maximal erythrocyte deformation index
Procedure: MAO Teng-min's methods were modified to prepare the model. Rats were subcutaneously injected with 0.8 mg/kg adrenaline twice at 1 h and 5 h after administration on the fifth day, and were placed into ice-water at 4° C. for 5 min at 2 h after the first injection of adrenaline.
To 40 μl of heparinized blood, 1 ml of deforming solution was added and mixed thoroughly. A sample of 0.8 ml was tested in an erythrocyte aggregation/deformability tester, and erythrocyte deformability was expressed as maximal erythrocyte deformation index and area under curve (SSS). Another 0.8 ml of anticoagulated blood was tested in an erythrocyte aggregation/deformability tester, and erythrocyte aggregation was expressed as maximal erythrocyte aggregation index (MAXD) and area under curve ([…]).

[6] = Fenton reaction system; paramagnetic method; cited from earlier work
[7] = system: streptozocin-induced diabetic mouse; settings: cited from earlier work
platelet aggregation = settings: cited from earlier work
IL-1β = test: ELISA of IL-1β in brain tissue of cerebral ischemia-reperfusion rats; settings: brain homogenate
TNF-α = test: ELISA of TNF-α in brain tissue of cerebral ischemia-reperfusion rats; settings: brain homogenate
IL-10 = test: ELISA of IL-10 in brain tissue of cerebral ischemia-reperfusion rats; settings: brain homogenate
TGF-β = test: ELISA of TGF-β in brain tissue of cerebral ischemia-reperfusion rats; settings: brain homogenate
[8] = system: cerebral ischemia-reperfusion model rats; test: Inflammatory factors in brain tissues in cerebral ischemia-reperfusion rats (overall statement); settings: 40 mg/kg
[9] = vs. model group P<0.05, P<0.01, listed as timosaponin BIT
[10] = 40 mg/kg, listed as timosaponin BII, 40 mg/kg

## C[C@@H](CCC1(O)O[C@H]2C[C@H]3[C@@H]4CC[C@@H]5C[C@@H](O[C@@H]6O[C@H](CO)[C@H](O)[C@H](O)[C@H]6O[C@@H]6O[C@H](CO)[C@@H](O)[C@H](O)[C@H]6O)CC[C@]5(C)[C@H]4CC[C@]3(C)[C@H]2[C@@H]1C)CO[C@@H]1O[C@H](CO)[C@@H](O)[C@H](O)[C@H]1O (stereo partly drawn) [Timosaponin BII, (25S)-26-O-β-D-glucopyranosyl-22-hydroxy-5β-furostane-3β,26-diol-3-O-β-D-glucopyranosyl(1→2)-β-D-galactopyranoside]
[1]; 10 mg/kg by gavage 7 days
  cerebral infarct size percentage to affected side: 6.35 ± 3.39%
  cerebral infarct size percentage to total brain: 3.27 ± 1.74%
[1]; vs. model group P<0.05, P<0.01
  effect on cerebral infarct size (in words): significantly reduced the cerebral infarct size
[1]; [9]
  effect on cerebral infarct size (in words): significantly reduce the cerebral infarct size
[1]; 20 mg/kg by gavage 7 days
  cerebral infarct size percentage to affected side: 5.37 ± 2.20 %
  cerebral infarct size percentage to total brain: 2.92 ± 1.20 %
[1]; 40 mg/kg by gavage 7 days
  cerebral infarct size percentage to affected side: 3.88 ± 2.38 %
  cerebral infarct size percentage to total brain: 1.99 ± 1.20 %
[2]; vs. model group P<0.05, P<0.01
  effect on neurological symptoms (in words): ameliorate neurological symptoms
[2]; [9]
  effect on neurological symptoms (in words): significantly lower the neurological symptom score
[2]; 10 mg/kg by gavage 7 days
  neurological symptomatic score 6 h: 2.08 ± 0.67
  neurological symptomatic score 24 h: 2.08 ± 0.79
[2]; 20 mg/kg by gavage 7 days
  neurological symptomatic score 6 h: 1.82 ± 0.75
  neurological symptomatic score 24 h: 2.00 ± 0.45
[2]; 40 mg/kg by gavage 7 days
  neurological symptomatic score 6 h: 1.50 ± 0.71
  neurological symptomatic score 24 h: 1.90 ± 0.74
[3]; 40 mg/kg, vs. model group P<0.05, 40 mg/kg
  effect on water content of brain / cerebral edema (in words): significantly lowered the water content in the affected hemisphere
[3]; 40 mg/kg, vs. model group P<0.05, listed as timosaponin BIT, 40 mg/kg
  effect on water content of brain / cerebral edema (in words): significantly reduce the water content of brain
[3]; 10 mg/kg
  Water content of affected hemisphere: 80.52 ± 0.69%
  Water content of unaffected hemisphere: 79.51 ± 0.57%
[3]; 20 mg/kg
  Water content of affected hemisphere: 80.46 ± 0.79%
  Water content of unaffected hemisphere: 79.41 ± 0.38%
[3]; 40 mg/kg
  Water content of affected hemisphere: 80.15 ± 0.99 %
  Water content of unaffected hemisphere: 79.47 ± 0.44%
[4]; 10 mg/kg by gavage 5 days
  Plasma viscosity (100 S^−1): 1.40 ± 0.10
  Whole blood viscosity 1 S^−1: 27.03 ± 4.64
  Whole blood viscosity 5 S^−1: 11.02 ± 1.38
  Whole blood viscosity 30 S^−1: 6.10 ± 0.85
  Whole blood viscosity 200 S^−1: 4.45 ± 0.71
[4]; P<0.05, P<0.01
  effect on whole blood and plasma viscosities (in words): significantly lowered whole blood and plasma viscosities
[4]; P<0.05, P<0.01, listed as timosaponin BII
  effect on whole blood and plasma viscosities (in words): significantly reduce the whole blood and plasma viscosities
[4]; 20 mg/kg by gavage 5 days
  Plasma viscosity (100 S^−1): 1.36 ± 0.10
  Whole blood viscosity 1 S^−1: 33.13 ± 5.70
  Whole blood viscosity 5 S^−1: 12.91 ± 1.82
  Whole blood viscosity 30 S^−1: 6.55 ± 0.93
  Whole blood viscosity 200 S^−1: 4.49 ± 0.70
[4]; 40 mg/kg by gavage 5 days
  Plasma viscosity (100 S^−1): 1.38 ± 0.12
  Whole blood viscosity 1 S^−1: 31.21 ± 4.29
  Whole blood viscosity 5 S^−1: 12.46 ± 1.33
  Whole blood viscosity 30 S^−1: 6.45 ± 0.60
  Whole blood viscosity 200 S^−1: 4.42 ± 0.38
[5]; 40 mg/kg, 40 mg/kg
  effect on erythrocyte aggregation index (in words): reduce the erythrocyte agglutination index
  effect on erythrocyte deformability (in words): significantly improve the deformation ability of erythrocytes
[5]; [10]
  effect on erythrocyte aggregation index (in words): decrease in erythrocyte aggregation index
  effect on erythrocyte deformability (in words): significant increase in erythrocyte deformability index
[5]; 10 mg/kg
  Erythrocyte aggregation SS: 186.67 ± 28.85
  Erythrocyte deformability SSS: 363.88 ± 19.58
  Erythrocyte aggregation MAXD: 0.94 ± 0.14
  Erythrocyte deformability MAXDI: 0.72 ± 0.05
[5]; 20 mg/kg
  Erythrocyte aggregation SS: 163.04 ± 50.23
  Erythrocyte deformability SSS: 363.97 ± 27.87
  Erythrocyte aggregation MAXD: 0.81 ± 0.26
  Erythrocyte deformability MAXDI: 0.71 ± 0.05
[5]; 40 mg/kg
  Erythrocyte aggregation SS: 152.78 ± 28.11
  Erythrocyte deformability SSS: 374.26 ± 15.82
  Erythrocyte aggregation MAXD: 0.76 ± 0.14
  Erythrocyte deformability MAXDI: 0.73 ± 0.03
[6]
  free radicals cleared: 57%
[7]
  blood sugar level (in words): can lower blood sugar level
Platelet aggregation
  clotting time (in words): prolonging clotting time
  platelet aggregation (in words): obviously inhibiting platelet aggregation
IL-1β; 10 mg/kg by gavage 5 days
  IL-1β: 9.70 ± 0.30 pg/mL
IL-1β; 40 mg/kg by gavage 5 days
  IL-1β: 7.98 ± 0.80 pg/mL
TNF-α; 10 mg/kg by gavage 5 days
  TNFα: 8.44 ± 0.62 pg/mL
TNF-α; 40 mg/kg by gavage 5 days
  TNFα: 7.65 ± 0.61 pg/mL
IL-10; 10 mg/kg by gavage 5 days
  IL-10: 14.49 ± 11.78 pg/mL
IL-10; 40 mg/kg by gavage 5 days
  IL-10: 11.19 ± 5.16 pg/mL
TGF-β; 10 mg/kg by gavage 5 days
  TGF-β: 12.70 ± 3.57 pg/mL
TGF-β; 40 mg/kg by gavage 5 days
  TGF-β: 10.30 ± 3.79 pg/mL
[8]
  effect on levels of inflammatory factors IL-1β, TNF-α, IL-10, TGF-β (in words): significantly reduced the levels of these inflammatory factors

## Hydergine [reference compound]
[1]; 0.6 mg/kg by gavage 7 days
  cerebral infarct size percentage to affected side: 3.75 ± 1.38 %
  cerebral infarct size percentage to total brain: 1.98 ± 0.72 %
[2]; 0.6 mg/kg by gavage 7 days
  neurological symptomatic score 6 h: 1.91 ± 0.83
  neurological symptomatic score 24 h: 1.55 ± 0.69
